# According to patent US6423693B1, “Growth hormone releasing hormone expression system and methods of use, including use in animals” (Baylor College of Medicine, priority 1997, dated 2002):
# No end group written: not given here.
# Legend:
# GH release = details: synthetic molecules, Ling et al 1984; cited from earlier work
# [1] = cited from earlier work
# [2] = test system: primary pig anterior pituitary cells; assay: GH release from primary pig anterior pituitary culture challenged with conditioned media; type: cell-based; details: 24 h stimulation at 37 C; media from 1 million primary pig myoblasts or media mixed with 10 ng synthetic peptide
# Procedure: Primary pig myoblasts culture was obtained as described (Doumit & Merkel, 1992, Tissue & Cell 24:253-262). The cells were plated at a density of 1 million cells/100 mm plate and maintained in growth media for 2-3 days. The cells were passed for 2 times prior to transfection. The transfection and differentiation was made in the same conditions as for the primary chicken myoblast culture. The media and cells were harvested for analysis 48, 72 and 96 h postdifferentiation in both cases. The efficiency of transfection estimated by β-galactosidase histochemistry on control plates was 10%.
# One day before harvesting, cells were washed twice in HBSS and changed in MEM, 0.1% BSA. The collected media was conditioned by adding ¼ volumes of 1% triflouroacetic acid (TFA) and 0.001% phenylmethylsulfonylflouride (PMSF), frozen at −80° C., lyophilized, purified on C-18 Sep-Columns (Peninsula Laboratories, CA, USA), relyophilized and used in RIA or resuspended in media conditioned for primary pig anterior pituitary culture. […]
# B. In vitro activity of pSK-GHRH. Since anterior pituitary is the natural target of GHRH stimulation, we determined the biological activity of secreted GHRH from the media of pSK-GHRH transfected primary pig myoblasts (FIG. 8). […]
substance,measurement,setting,value
"hGHRH(1-44)OH: non-amidated human GHRH (1-44), Tyr1 to Leu44; the molecule expressed by pSK-GHRH (YADAIFTNSYRKVLGQLSARKLLQDIMSRQQGESNQERGARARL-OH; UniProt P01286 32-75, looked up)",less effective in releasing GH than the (1-44) amidated form,GH release,30%
hGHRH(1-40)OH: Human 1-40 OH growth hormone releasing hormone (YADAIFTNSYRKVLGQLSARKLLQDIMSRQQGESNQERGA-OH),potency in vivo relative to hGHRH(1-44)NH2,[1],same potency in vivo as hGHRH(1-44)NH2
"hGHRH (1-44)NH2: synthetic amidated human growth hormone releasing hormone (1-44) (YADAIFTNSYRKVLGQLSARKLLQDIMSRQQGESNQERGARARL-NH2; UniProt P01286 32-75, looked up)",GH release,[2],115 ± 3.2 ng/mL
